Data on five molecules can be found in PMC11744668, “2-Cyanopyrimidine-Containing Molecules for N-Terminal Selective Cyclization of Phage-Displayed Peptides” (ACS Chemical Biology, 2025).

Entries after “also recorded” stand apart in the source; their conditions may differ. Starred links: 1 amine or outer side, 2 acyl side, 3 side chain; linkers in the order of their positions; H or OH if unused. Positions of bridges follow the written chain, without caps; N, C: chain ends. Non-standard residues stand in square brackets, D forms with d. Residues, ends and D or L forms follow the SMILES beside them. No end group written: not given here. X1 = O=C([C@@H]1CSC(c2ncc(N[*:1])cn2)=N1)[*:2]; X2 = O=C([C@@H]1CSC(c2nccc(N[*:1])n2)=N1)[*:2]; Abu = CC[C@H](N)C(=O)O

The target of data set [1] is T1, ZNRF3 extracellular domain (ZNRF3-ECD) (Homo sapiens, UniProt Q9ULT6).
T1 construct: The ZNRF3 ECD was expressed and characterized exactly as previously described; SUMO (N, cleaved yes); made in house; host or cells: E. coli BL21, co-expressing BirA
T1 sequence (Q9ULT6 56-219 limits assumed): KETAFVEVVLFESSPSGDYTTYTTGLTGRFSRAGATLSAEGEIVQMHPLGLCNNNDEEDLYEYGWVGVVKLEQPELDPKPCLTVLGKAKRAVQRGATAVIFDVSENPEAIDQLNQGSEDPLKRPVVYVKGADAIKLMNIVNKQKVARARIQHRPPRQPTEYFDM
The experiment in a line: Phage selection against ZNRF3-ECD, NGS enrichment, pCAmCP-cyclized library. The data set is classed as binding. The text has this:
(§1) In addition to simply ensuring the cyclization potential on phage, we also looked to investigate the selection differences using two different linkers to macrocyclize the same initial peptide library. ZNRF3 is a membrane protein that contains an intracellular E3 ligase domain and has previously shown potential in promoting degradation of oncogenic membrane proteins, such as PDL1.[32] ZNRF3 also plays a major role in the regulation of the Wnt signaling cascade, which can modulate a variety of cell processes related to oncogenesis and cell differentiation.[33]−[36] […] Because it has an extracellular domain that can be easily accessible to macrocyclic peptides, we envisioned that a selection against the extracellular domain for ZNRF3 (ZNRF3-ECD) would afford peptides that could potentially be used in the development of proteolysis-targeting chimeras (PROTACs) for a variety of membrane proteins. We expressed and characterized a biotinylated ZNRF3-ECD using an Avi-Tag on the […] to facilitate the selection using streptavidin magnetic beads, as has been previously described (Figure S20).[38] […] To avoid the potential for enriching peptides that bind to the streptavidin resin, we alternated loading the protein using streptavidin and NHS-functionalized magnetic beads for the first three rounds of selection (Figure 5).
(§2) The purified phage library (10^11 to 10^12 cfu) in binding buffer was incubated with 1 mM TCEP at 37 °C. After 30 min, the linker (pCAmCP or mCAmCP, 10 mM in DMSO) was added to a final concentration of 100 μM. The solution was incubated for 24 h at RT with slow rotation. The library was then directly used for affinity selection without further purification.
(§3) Streptavidin-coated magnetic beads (100 μL, 50% slurry, Cytiva Sera-Mag) were transferred to a 1.5 mL tube, washed three times with 1 mL of binding buffer (10 mM HEPES, 150 mM NaCl, 10 mM MgCl2, and 1 mM KCl, pH 7.4), resuspended in 100 μL of binding buffer, and split into two tubes. […]

The target of data set [2] is T1, ZNRF3 extracellular domain (ZNRF3-ECD). Description: Biolayer interferometry (BLI) binding to immobilized biotinylated ZNRF3-ECD. As for the experimental part: The ZNRF3 ECD was expressed and characterized exactly as previously described.[38] Plasmid pET28a-SUMO-ZNRF3-Avi was cotransformed into E. coli (BL21) along with a plasmid expressing BirA. The cells were then inoculated into 2× YT containing 50 μg/mL kanamycin and 34 μg/mL chloramphenicol and grown at 37 °C until OD = 0.5. Expression was then induced by the addition of 1 mM IPTG and 50 μM biotin, and then the protein was expressed for 18 h at 16 °C. The cells were then pelleted (3750g, 15 min) and then resuspended in buffer A (50 mM Tris-HCl, 10% glycerol, 150 mM NaCl, and 25 mM imidazole, pH 7.5, 20 mL/liter of expression). The cells were then lysed by sonication (1 s on, 1 s off, 5 min, 60% A, repeated once), and the lysate was clarified by centrifugation (25,000g, 20 min). The supernatant was then incubated with a Ni-NTA column for 45 min at 4 °C. The column was then washed with 5 CV of buffer A before being eluted using 2 CV of buffer B (buffer A + 240 mM imidazole). The elution was then concentrated using an Amicon centrifugal filter before being desalted into buffer A on a HiPrep 26/10 column. The SUMO tag was then cleaved by the addition of 30 μg/mL SUMO protease and incubation for 48 h at 4 °C. The protein was then loaded onto a second Ni-NTA column for 45 min at 4 °C, and the flowthrough was collected and concentrated to 1 mL by centrifugation. Pure protein was then isolated using size exclusion chromatography (HiLoad 16/600, Superdex 75 pg) in buffer C (50 mM Tris-HCl, pH 7.5, 10% (v/v) glycerol, 150 mM NaCl, and 0.5 mM EDTA). Pure protein was stored in storage buffer (50 mM Tris-HCl, pH 7.5, 50% (v/v) glycerol, and 150 mM NaCl) at −80 °C before being used for assays.
Biolayer interferometry (BLI) experiments were performed using streptavidin-coated biosensors (Sartorius Bio) on an Octet R8 biolayer interferometer (Sartorius Bio). All experiments were performed in assay buffer (10 mM HEPES, 150 mM NaCl, and 0.01% Tween 20, pH 7.5). Biotinylated ZNRF3 (28 μg/mL in assay buffer) was loaded onto the sensor to 4 nm of loading over 10 min, and then the sensors were quenched for one min with a 1% BSA solution in assay buffer. Peptides were serially diluted in assay buffer containing 0.8% DMF, and the association and dissociation to ZNRF3 were measured over 3 and 5 min, respectively. Between each experiment, sensors were regenerated using 10 mM glycine, pH 1.5. Binding curves were double-referenced against a protein-only sensor and a parallel unloaded sensor to correct for any nonspecific binding to the sensors. All curves were fit in the Octet Kinetic Analysis program (Sartorius Bio) using a 1:1 protein/ligand binding model.
On the technique in general: In BLI a coated tip is dipped into the sample, and binding shifts an interference pattern.

Data set [3] has the same target. The experiment in a line: Phage selection against ZNRF3-ECD, NGS enrichment, mCAmCP-cyclized library. The data set is classed as binding.
From the text: as §1, §2, §3

Data set [4] in a line: Solubility observation for synthesized peptides. Format: physicochemical. The settings on record: observed at synthesis / BLI testing.
A short description of data set [5]: Chloroacetamide addition kinetics with N-terminal Abu peptide CGK-5Abu. The settings on record: 500 μM peptide; CGK-5Abu vs CGK-5. The text has this:
While pCAmCP and mCAmCP gave efficient cyclization of the peptide fusion of sfGFP, we looked to further investigate the specificity of the reaction using peptide kinetic assays. To do this, we first established reactivity of the compounds with a model peptide (CGK-5, Figures 3A and S16) that was composed of two cysteines flanking a region tuned for solubility in buffer (GGKGG) and with a tryptophan residue on the C-terminus for UV absorbance. […] To test the specificity of the reaction for the N-terminal cysteine, we synthesized a peptide analogue (CGK-5Abu, Figures 3D–F and S17) that contained 2-aminobutyric acid in place of the N-terminal cysteine. […] Since these reactions occurred at 500 μM of peptide to allow for analysis on the HPLC, we envision this difference will likely be exaggerated when using lower peptide/protein concentrations. Although it is unlikely at neutral pH, the chloroacetamide moiety can possibly react with nucleophilic amino acids other than cysteine. […]
The peptide (CGK-5 or CGK-5Abu, 5 mM stock in water) was diluted to 500 μM in ammonium bicarbonate buffer (50 mM, pH 7.5) containing 1.2 mM TCEP. […] Following dilution with 20 μL of water, the sample was then analyzed on a Shimadzu HPLC with an LCMS-2020 mass spectrometer attached (10–40% ACN gradient in H2O over 6 min, 0.1% formic acid, 1 mL/min flow rate, Shimadzu C18 250 × 4.6 mm, 5 μm). […]

Data set [6] has as its target T2, ZNRF3 extracellular domain (biotinylated) (UniProt Q9ULT6 56-219, biotin (on the Avi-Tag; co-expression with BirA and 50 uM biotin)).
T2 construct: ZNRF3, extracellular domain; also called ZNRF3-ECD; ZNRF3 ECD; source: E. coli (BL21), co-expressed with BirA, purified (Ni-NTA, SUMO protease, second Ni-NTA, SEC Superdex 75); not shown: Avi-Tag, N-terminal, kept
T2 sequence (looked up): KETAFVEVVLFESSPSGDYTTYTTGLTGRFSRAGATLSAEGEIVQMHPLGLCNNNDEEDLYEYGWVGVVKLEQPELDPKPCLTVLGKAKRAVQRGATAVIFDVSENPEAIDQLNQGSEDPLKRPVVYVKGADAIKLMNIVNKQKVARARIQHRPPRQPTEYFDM
Description: BLI; biotinylated ZNRF3-ECD loaded on streptavidin biosensors (Octet R8); peptides serially diluted in 10 mM HEPES, 150 mM NaCl, 0.01% Tween 20, pH 7.5 with 0.8% DMF; association 3 min, dissociation 5 min; double-referenced; 1:1 binding model. The settings on record: both partners purified.

As usually defined, the Kd is the constant that tells how readily two partners part at equilibrium. Low values mean higher affinity, high ones lower affinity. Turning to `CC(C)C[C@@H]1NC(=O)[C@H](CCCCN)NC(=O)[C@H](CCC(N)=O)NC(=O)[C@H](CCCNC(=N)N)NC(=O)[C@H](Cc2c[nH]c3ccccc23)NC(=O)[C@H](C)NC(=O)[C@H](CCC(=O)O)NC(=O)[C@H](CC(C)C)NC(=O)[C@@H]2CCCN2C(=O)[C@H](CO)NC(=O)[C@H](CC(C)C)NC(=O)[C@H](Cc2c[nH]cn2)NC(=O)[C@@H]2CSC(=N2)c2ncc(cn2)NC(=O)CSC[C@@H](C(N)=O)NC1=O` [Peptide Z27S1] ({CH2CO}-[X1]HLSPLEAWRQKLC-NH2; thioether N-14), the “fold increase in abundance after round 2” value in data set [1] (enrichment after round 2) is > 16,000 -fold. Also, in data set [1] (round 1), the “presence in round 1 sequencing data (in words)” value is given as “not found in the round 1 sequencing data”. In addition, the “share of total sequences in round 4” value in data set [1] (round 4, 69,462 total sequences) was 67%. Also, the “binding to ZNRF3 (in words)” value in data set [2] (10 mM HEPES, 150 mM NaCl, 0.01% Tween 20, pH 7.5, 0.8% DMF) is listed as “nanomolar affinity to ZNRF3”. The molecule further returned a Kd in data set [2] (streptavidin biosensors, pH 7.5, 1:1 binding model, value as given in abstract) of 360 nM.
On to `CSCC[C@@H]1NC(=O)[C@H](CC(C)C)NC(=O)[C@H](CC(N)=O)NC(=O)[C@H](CCC(=O)O)NC(=O)[C@H](Cc2c[nH]c3ccccc23)NC(=O)[C@H](CC(N)=O)NC(=O)[C@H](CC(C)C)NC(=O)[C@H](CCCNC(=N)N)NC(=O)[C@H](CC(C)C)NC(=O)[C@H](Cc2ccccc2)NC(=O)[C@@H]2CSC(=N2)c2nccc(n2)NC(=O)CSC[C@@H](C(N)=O)NC(=O)[C@H](Cc2c[nH]c3ccccc23)NC(=O)[C@@H]2CCCN2C1=O` [Peptide Z28S1] ({CH2CO}-[X2]FLRLNWENLMPWC-NH2; thioether N-14; C-terminus assumed), for which the “off rates (in words)” value in data set [2] (pH 7.5, dissociation over 5 min) is “high off rates; also recorded: extremely quick off rates”. Also, the “fold enrichment after round 1” value in data set [3] (after round 1) is given as “over 32,000 -fold”. Moreover, the “share of total sequences after round 4” value in data set [3] (round 4, 84,190 total sequences) was 81%.
On to “CELVMMHGYWWRQC (also: sidechain bridge or staple (positions not given here)) [Peptide Z28S2, peptide enriched in the mCAmCP selection]”, for which, in data set [3] (after round 2), the “fold increase in abundance after round 2” value is ~5000 -fold. The “solubility (in words)” value in data set [4] is given as “poor solubility during synthesis”.
“[Abu]GGKGGCGW [CGK-5Abu, peptide analogue with 2-aminobutyric acid in place of the N-terminal cysteine]”: the “rate of reaction relative to the cyclization reaction, fold slower” value in data set [5] is recorded as ~3 -fold slower.

B1: Z27S1Abu (linear analogue of Z27S1) (peptide)
chain: [Abu]HLSPLEAWRQKL[Abu]
As to B1, the affinity in data set [6], expressed as Kd, was 2600 nM.
